{
  "source": "paper PMC7035334",
  "about": "“Effects of SDS on the activity and conformation of protein tyrosine phosphatase from thermus thermophilus HB27” (Scientific Reports, 2020)",
  "target": "T1, PTPase from thermus thermophilus HB27 (Thermus thermophilus, UniProt Q72JF6)",
  "T1 construct": "gene TT_C0816; recombinant, cloned into pET-28a(+), E. coli BL21(DE3), purified; LMW PTPase EC 3.1.3.48; P-loop CLGNICRS, residues Cys11, Cys16, Arg17, Asp123 (Tt1001)",
  "T1 sequence (Q72JF6 1-161)": "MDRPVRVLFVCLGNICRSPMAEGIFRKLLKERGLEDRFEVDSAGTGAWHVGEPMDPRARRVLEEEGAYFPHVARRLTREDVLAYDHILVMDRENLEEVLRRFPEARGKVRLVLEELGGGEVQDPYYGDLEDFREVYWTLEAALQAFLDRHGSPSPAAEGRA",
  "experiment": "residual pNPP phosphatase activity, absorbance […] nm",
  "type": "biochemical",
  "data": [
    {"smiles": "CCCCCCCCCCCCOS(=O)(=O)O", "note": "[SDS]", "values": [
      {"measurement": "IC50", "result": 11.3, "unit": "µM"}
    ]}
  ]
}
